Assay results reported in patent publication US4666902A, “Tetrahydropyridazinone derivatives, processes for their preparation and their use” (Cassella Aktiengesellschaft, priority 1983, dated 1987).
Values belong to the molecule of their own block, whether it stands above or below them.

Experiments:
[1] = tested on: thrombocyte aggregation induced by ADP; assay: Inhibition of thrombocyte aggregation in vitro (Born), ADP; assay type: cell-based; details: induced by 10 μM ADP
Description: (§1) The values of tables 3 to 5 showing the inhibition of the thrombocytic aggregation were determined in vitro according to the Born method (J. Physiol. 162 67 P (1962)) using arachidonic acid, thrombin or adenosine diphosphate as aggregation agent.
Inhibition of thrombocyte aggregation in vitro (according to
BORN) induced by 10 μM ADP

[2] = tested on: action of arachidonic acid; assay: Influence on the action of arachidonic acid in vivo under anesthesia (Lefort and Vargaftig); design: species or system guinea pig; key: -: no action; (+): weak; +: medium; ++: strong; +++: very strong
Description: The values of Table 2 showing the influence on the action of arachidonic acid were determined in guinea pigs under anesthesia using the Lefort and Vargaftig method (Br. J. Pharmac. 63, 35 (1978)).
Influence on the action of arachidonic acid (arachidonic acid
500 g/kg i.v.) in vivo in guinea pigs under anesthesia

[3] = tested on: thrombocyte aggregation induced by arachidonic acid; assay: Inhibition of thrombocyte aggregation in vitro (Born), arachidonic acid; assay type: cell-based; details: induced by 0.36 mM of arachidonic acid
Description: as §1
Inhibition of thrombocyte aggregation in vitro (according to BORN)
induced by 0.36 mM of arachidonic acid

[4] = tested on: thrombocyte aggregation induced by thrombin; assay: Inhibition of thrombocyte aggregation in vitro (Born), thrombin; assay type: cell-based; details: induced by 0.2-0.4 N.I.H. units/ml (thrombin)
Description: as §1
Inhibition of thrombocyte aggregation in vitro
(according to BORN) induced by 0.2-0.4 N.I.H. units/ml

[5] = tested on: experimental thrombosis, venous; assay: Venous thrombotic protection, experimental thrombosis in vivo (Harbauer); details: 10 mg/kg i.p.
Description: The values of the arterial thrombotic protection given in table 1 were determined in rats according to the method of Meng and Seuter (Naunyn-Schmiedeberg's Arch. Pharmacol. 301, 115 (1977)), those of the venous thrombotic protection were determined in rabbits according to the Harbauer method ("Versuche zur Entwicklung eines standardisierten venosen Thrombosemodells am Kaninchen" ("Tests for developing a standardized venous thrombotic model in rabbits"), 17th Angiologic Symposium, Kitzbuhel (1982)).
Influence on the experimental thrombosis in vivo

SMILES: O=C1CC(CO)C(c2ccc(N3CCCC3=O)cc2)=NN1 (stereo not drawn) [drawing 113]
IC50 [1]: 20 µM

SMILES: COc1ccc(C2=NNC(=O)CC2CO)cc1OC (stereo not drawn) [drawing 69]
PGI2 Effect: Lowering of blood pressure ([2]; 0.3-3 mg/kg i.v.): +++
TXA2 Effect: Bronchospasm ([2]; 0.3-3 mg/kg i.v.): ++
TXA2 Effect: Thrombocytopenia ([2]; 0.3-3 mg/kg i.v.): ++

SMILES: O=C1CC(CO)C(c2ccc(N3CCCC3=O)cc2)=NN1 (stereo not drawn) [drawing 62]
PGI2 Effect: Lowering of blood pressure ([2]; 0.3-3 mg/kg i.v.): +
TXA2 Effect: Bronchospasm ([2]; 0.3-3 mg/kg i.v.): +
TXA2 Effect: Thrombocytopenia ([2]; 0.3-3 mg/kg i.v.): ++

SMILES: O=C1CC(CO)C(c2ccco2)=NN1 (stereo not drawn)
PGI2 Effect: Lowering of blood pressure ([2]; 1-10 mg/kg i.v.): -
TXA2 Effect: Bronchospasm ([2]; 1-10 mg/kg i.v.): (+)
TXA2 Effect: Thrombocytopenia ([2]; 1-10 mg/kg i.v.): (+)

SMILES: COc1ccc(C2=NN(C)C(=O)CC2CO)cc1OC (stereo not drawn)
IC50 [3]: 40 µM

SMILES: O=C1CC(CO)C(c2c[nH]c3ccccc23)=NN1 (stereo not drawn) [drawing 93]
IC50 [3]: 0.55 µM

SMILES: COc1ccc(C2=NNC(=O)CC2COC(=O)COc2ccc(Cl)cc2)cc1OC (stereo not drawn) [drawing 102]
IC50 [4]: > 100 µM

SMILES: Cc1nnc(COc2ccc(C3=NNC(=O)CC3CO)cc2)o1 (stereo not drawn) [drawing 45]
Thrombotic Protection % venous (rabbit) [5]: 50%

SMILES: Cc1nnc(COc2ccc(C3=NNC(=O)CC3CO)cc2)o1 (stereo not drawn) [drawing 58]
PGI2 Effect: Lowering of blood pressure ([2]; 1-10 mg/kg i.v.): +
TXA2 Effect: Bronchospasm ([2]; 1-10 mg/kg i.v.): ++
TXA2 Effect: Thrombocytopenia ([2]; 1-10 mg/kg i.v.): ++

SMILES: O=C1CC(CO)C(c2cccs2)=NN1 (stereo not drawn) [drawing 68]
PGI2 Effect: Lowering of blood pressure ([2]; 3-10 mg/kg i.v.): (+)
TXA2 Effect: Bronchospasm ([2]; 3-10 mg/kg i.v.): (+)
TXA2 Effect: Thrombocytopenia ([2]; 3-10 mg/kg i.v.): (+)

SMILES: O=C1CC(CO)C(c2cccs2)=NN1 (stereo not drawn) [drawing 86]
IC50 [3]: 50 µM

SMILES: COc1ccc(C2=NNC(=O)CC2CO)cc1OC (stereo not drawn) [drawing 88]
IC50 [3]: 0.6 µM

SMILES: O=C1CC(CO)C(c2ccc[nH]2)=NN1 (stereo not drawn) [drawing 63]
PGI2 Effect: Lowering of blood pressure ([2]; 1-10 mg/kg i.v.): (+)
TXA2 Effect: Bronchospasm ([2]; 1-10 mg/kg i.v.): ++
TXA2 Effect: Thrombocytopenia ([2]; 1-10 mg/kg i.v.): +++

SMILES: O=C1CC(CO)C(c2cccc([N+](=O)[O-])c2)=NN1 (stereo not drawn) [drawing 78]
IC50 [3]: 1.5 µM

SMILES: COc1ccc(C2=NNC(=O)CC2CO)cc1OC (stereo not drawn) [drawing 110]
IC50 [1]: 9 µM

SMILES: O=C1CC(CO)C(c2ccc(N3CCCC3=O)cc2)=NN1 (stereo not drawn) [drawing 87]
IC50 [3]: 0.4 µM

SMILES: Cc1cc(COc2ccc(C3=NNC(=O)CC3CO)cc2)[nH]c(=O)c1 (stereo not drawn)
PGI2 Effect: Lowering of blood pressure ([2]; 1-10 mg/kg i.v.): -
TXA2 Effect: Bronchospasm ([2]; 1-10 mg/kg i.v.): (+)
TXA2 Effect: Thrombocytopenia ([2]; 1-10 mg/kg i.v.): (+)

SMILES: CC(=O)Nc1ccc(C2=NN(C)C(=O)CC2CO)cc1 (stereo not drawn) [drawing 82]
IC50 [3]: > 100 µM

SMILES: O=C1CC(CO)C(c2ccc(OCCn3ccnc3)cc2)=NN1 (stereo not drawn) [drawing 66]
PGI2 Effect: Lowering of blood pressure ([2]; 1-10 mg/kg i.v.): (+)
TXA2 Effect: Bronchospasm ([2]; 1-10 mg/kg i.v.): +
TXA2 Effect: Thrombocytopenia ([2]; 1-10 mg/kg i.v.): ++

Next, values leading:

IC50 [3]: 2 µM
SMILES: O=C1CC(CO)C(c2ccc(OCCn3ccnc3)cc2)=NN1 (stereo not drawn) [drawing 80]

IC50 [1]: 50 µM
SMILES: COc1ccc(C2=NNC(=O)CC2CO)cc1 (stereo not drawn) [drawing 107]

IC50 [3]: 0.9 µM
SMILES: O=C1CC(CO)C(c2ccc(Cl)cc2)=NN1 (stereo not drawn) [drawing 90]

IC50 [1]: 36 µM
SMILES: O=C1CC(CO)C(c2ccc(OCc3cccnc3)cc2)=NN1 (stereo not drawn) [drawing 114]

IC50 [3]: 0.2 µM
SMILES: CC(=O)Nc1ccc(C2=NNC(=O)CC2CO)cc1 (stereo not drawn) [drawing 91]

IC50 [1]: 20 µM
SMILES: N#Cc1ccc(C2=NNC(=O)CC2CO)cc1 (stereo not drawn) [drawing 115]

IC50 [1]: > 100 µM
SMILES: O=C1CC(CO)C(c2ccccc2)=NN1 (stereo not drawn) [drawing 105]

IC50 [1]: 20 µM
SMILES: Cc1nnc(COc2ccc(C3=NNC(=O)CC3CO)cc2)o1 (stereo not drawn) [drawing 111]

IC50 [3]: 0.45 µM
SMILES: O=C1CC(CO)C(c2ccc(OCc3cccnc3)cc2)=NN1 (stereo not drawn) [drawing 85]

IC50 [1]: 10 µM
SMILES: CC(=O)Nc1ccc(C2=NNC(=O)CC2CO)cc1 (stereo not drawn) [drawing 109]
